Test results published in US10782295B2, “Cysteine-reactive ligand discovery in proteomes” (THE SCRIPPS RESEARCH INSTITUTE, priority 2013, dated 2020).

Legend:
C22A-ZAK = biological target: T1, C22A-ZAK (Homo sapiens, UniProt Q9NYL2, C22A); test: in-gel fluorescence labeling by HNEyne probe; format: binding; settings: in vitro (10 μM) and in living cells (5 μM), 1 hour
T1 construct: Full-length cDNA encoding human ZAK-13 (BC001401); expressed in transfected cells
Protocol: (§1) The gel signals for IA-labeling of WT-ZAK were blocked by pretreatment with HNE over a concentration range that closely matched the HNE-sensitivity profile observed for C22 in competitive isoTOP-ABPP experiments (FIG. 4b, compare to FIG. 3a). […] Considering further that C22 is predicted to reside adjacent to the ATP-binding loop of ZAK, we postulated that the HNE-induced loss of kinase activity might be due to blockade of ATP-binding.
(§2) 50 μL of soluble lysate (1 mg/mL in PBS) of […] cells transfected with mock ZAKWT and ZAK-C22A was labeled with 10 μM of HNEyne4 (Cayman Chemicals, 1 μL of 500 μM stock in ethanol) for 1 hour at room temperature. Cycloaddition was performed with 200 μM rhodamine-azide, 1 mM TCEP, 100 μM TBTA ligand and 1 mM CuSO4. The reaction was allowed to proceed at room temperature for 1 hour before quenching with 20 μL of 4×SDS-PAGE loading buffer (reducing). Quenched reactions were separated by SDS-PAGE (40 μL of sample/lane) and visualized in-gel using a fluorescence scanner. For the in situ HNEyne labeling, WT- and C22A-ZAK transfected cells were grown in a 6-well plate to 100% confluency and switched into 1 mL of serum-free DMEM medium. […] 50 μL of soluble lysates were subjected to the cycloaddition protocol as described above and probe labeling was monitored by in-gel fluorescence.

WT-ZAK = biological target: T2, WT-ZAK (Homo sapiens, UniProt Q9NYL2); test: in-gel fluorescence labeling by HNEyne probe; format: binding; settings: in vitro (10 μM) and in living cells (5 μM), 1 hour
T2 construct: Full-length cDNA encoding human ZAK-13 (BC001401); expressed in transfected cells
Protocol: as §1, §2

T1 sequence (Q9NYL2 1-455 isoform Q9NYL2-2 C22A): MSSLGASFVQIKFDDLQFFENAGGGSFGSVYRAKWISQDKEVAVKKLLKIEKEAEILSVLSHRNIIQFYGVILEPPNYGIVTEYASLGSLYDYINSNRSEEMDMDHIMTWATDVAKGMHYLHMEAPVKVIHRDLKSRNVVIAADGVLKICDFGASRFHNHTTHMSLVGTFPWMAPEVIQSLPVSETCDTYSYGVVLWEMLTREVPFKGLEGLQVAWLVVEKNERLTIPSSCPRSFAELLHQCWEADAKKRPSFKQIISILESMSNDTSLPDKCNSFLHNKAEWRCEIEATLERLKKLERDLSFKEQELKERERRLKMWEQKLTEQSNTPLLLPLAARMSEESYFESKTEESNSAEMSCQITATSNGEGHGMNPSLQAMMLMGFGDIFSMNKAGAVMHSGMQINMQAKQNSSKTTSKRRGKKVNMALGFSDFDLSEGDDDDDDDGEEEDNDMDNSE
T2 sequence (Q9NYL2 1-455 isoform Q9NYL2-2): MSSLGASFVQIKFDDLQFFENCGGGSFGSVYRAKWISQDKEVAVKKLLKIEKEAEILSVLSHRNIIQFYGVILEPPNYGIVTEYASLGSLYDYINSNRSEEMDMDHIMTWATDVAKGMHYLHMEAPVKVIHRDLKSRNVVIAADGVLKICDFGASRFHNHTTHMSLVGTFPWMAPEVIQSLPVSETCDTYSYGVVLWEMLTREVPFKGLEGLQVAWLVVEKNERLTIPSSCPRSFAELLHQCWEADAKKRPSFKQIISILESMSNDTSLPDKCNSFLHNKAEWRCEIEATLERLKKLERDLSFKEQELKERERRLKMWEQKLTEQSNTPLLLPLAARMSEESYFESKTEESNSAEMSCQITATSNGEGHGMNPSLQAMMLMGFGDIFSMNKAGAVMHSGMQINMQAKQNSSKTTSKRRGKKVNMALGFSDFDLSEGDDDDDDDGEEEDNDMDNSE

probe labeling of C22A-ZAK mutant (C22A-ZAK): but not the C22A-ZAK mutant
probe labeling of WT-ZAK (WT-ZAK): direct labeling
Structure (SMILES): C#CCCCC(O)C=CC=O (centres unmarked) [HNEyne]
